Broadly, the IC50 is the midpoint of a concentration-inhibition curve. Broadly, the AC50 is the concentration giving half of the maximal activity seen.

Counter-ions that a name gives are not always drawn.

Data on 25 molecules can be found in patent US20240002375A1, “2-(INDAZOL-5-YL)-6-(PIPERIDIN-4-YL)-1,7-NAPHTHYRIDINE DERIVATIVES AND RELATED COMPOUNDS AS MODULATORS FOR SPLICING NUCLEIC ACIDS AND FOR THE TRE” (REMIX THERAPEUTICS INC., priority 2020, published 2024).

Common to all, as to format: cell-based
Assay [1] relates to Target C CJ mRNA. The assay is described as follows: Gene panel canonical junction qPCR splicing assay, Target C. The following applies: Table 4, read-out: Target C IC50 (decrease in CJ mRNA levels). Put shortly: (§1)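 A673 or K562 cells treated with compound; canonical-junction mRNA measured by RT-qPCR with junction-spanning primer/probe sets, normalized to GAPDH, GUSB or PPIA and DMSO (2^−ΔΔCt). IC50 for CJ decrease from 4-parameter logistic fit of percentage response.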

Assay [2] deals with SMN2 CJ mRNA. Put plainly: Gene panel canonical junction qPCR splicing assay, SMN2. The conditions noted are these: Table 4, read-out: SMN2 IC50 (decrease in CJ mRNA levels). Put shortly:
as §1
For orientation: In qPCR the cycle at which signal appears reflects the starting amount.

The subject of assay [3] is HTT CJ mRNA. The assay is described as follows: Gene panel canonical junction qPCR splicing assay, HTT. The following applies: Table 4, read-out: HTT IC50 (decrease in CJ mRNA levels). Put shortly: as §1
Assay [4] relates to HTT mRNA. The assay is described as follows: Splicing assay (RT-qPCR) of HTT mRNA alternative junction (AJ) and canonical junction (CJ). The following applies: A673 or K562 cells, 24 hours; for IC50: decrease in CJ mRNA, read-out: HTT CJ IC50; for AC50: increase in AJ mRNA, read-out: HTT AJ AC50. Put shortly:
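HTT splice switching read as formation of an alternative-exon junction (AJ) versus the canonical junction (CJ) by one-step RT-qPCR on cell lysates, with GAPDH/GUSB housekeeping normalisation in K562 and PPIA in A673. Compounds: 11-point 3-fold series up to 10 uM, ≤0.25% DMSO, 24 h at 37 °C.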

As to `Cc1cn2nc(-c3ccc4nc(N5CCC(NC(C)(C)C)C5)ccc4n3)cc2c(C)n1` (centres unmarked) [Compound 187], the IC50 in assay [1], in assay [2], in assay [3] and in assay [4] was less than 0.1 µM in each case. For the same molecule, the AC50 in assay [4] was less than 0.1 µM.
In the case of `Cn1cc2cc(-c3ccc4nc(N5CC[C@@H](NC6COC6)C5)ccc4n3)c(O)cc2n1` [Compound 188], the IC50 in assay [1] is 1 to 10 µM; in assay [2], less than 0.1 µM; in assay [3], 0.1 to 1 µM; in assay [4], 0.1 to 1 µM. The AC50 in assay [4] lay within 0.1 to 1 µM.
For the molecule `Cc1nc2cc(O)c(-c3ccc4nc(N5CCC(NC(C)(C)C)C5)ccc4n3)cc2s1` (centres unmarked) [Compound 190, 6-{6-[3-(tert-butylamino)pyrrolidin-1-yl]-1,5-naphthyridin-2-yl}-2-methyl-1,3-benzothiazol-5-ol; trifluoroacetic acid], the IC50 in assay [1] is greater than 10 µM; in assay [2], less than 0.1 µM; in assay [3], greater than 10 µM; in assay [4] it was greater than 10 µM. The AC50 in assay [4] was greater than 10 µM.
Consider `Cc1c(O)c(-c2ccc3nc(N4CCC(NC(C)(C)C)C4)ccc3n2)cc2cn(C)nc12` (centres unmarked) [Compound 191, 5-{6-[3-(tert-butylamino)pyrrolidin-1-yl]-1,5-naphthyridin-2-yl}-2,7-dimethylindazol-6-ol hydrochloride], for which the IC50 in assay [1] was greater than 10 µM; in assay [2], greater than 10 µM; in assay [3] it was greater than 10 µM; in assay [4] it was less than 0.1 µM. The AC50 in assay [4] was less than 0.1 µM.
Regarding `CN1CCCC2(CCN2c2ccc3nc(-c4cc5cn(C)nc5cc4O)ccc3n2)C1` (centres unmarked) [Compound 192, 2-methyl-5-(6-{6-methyl-1,6-diazaspiro[3.5]nonan-1-yl}-1,5-naphthyridin-2-yl) indazol-6-ol], the IC50 in assay [1], in assay [2], in assay [3] and in assay [4] was greater than 10 µM each time. The AC50 in assay [4] was greater than 10 µM.
As to `Cn1cc2cc(-c3ccc4nc(C5CCNCC5)ccc4n3)c(F)cc2n1` [Compound 193, 2-(6-fluoro-2-methylindazol-5-yl)-6-(piperidin-4-yl)-1,5-naphthyridine], the IC50 in assay [1], in assay [2], in assay [3] and in assay [4] was 1 to 10 µM in each case. Also, the AC50 in assay [4] lay within 1 to 10 µM.
As to `Cn1cc2cc(-c3ccc4nc(N5CC[C@H](NCC6CC6)C5)ccc4n3)c(O)cc2n1` [Compound 194], the IC50 in assay [1], in assay [2], in assay [3] and in assay [4] was less than 0.1 µM throughout. Further, in assay [4], the AC50 is less than 0.1 µM.
Consider `Cn1cc2cc(-c3ccc4nc(N5CC[C@@H](NCC6CC6)C5)ccc4n3)c(O)cc2n1` [Compound 195], for which the IC50 was 0.1 to 1 µM in assay [1], less than 0.1 µM in assay [2], 0.1 to 1 µM in assay [3] and 0.1 to 1 µM in assay [4]. Moreover, the AC50 in assay [4] is less than 0.1 µM.
Turning to `Cn1cc2cc(-c3ccc4nc(C5CCNCC5)ccc4n3)c(C(F)F)cc2n1` [Compound 196, 2-[6-(difluoromethyl)-2-methylindazol-5-yl]-6-(piperidin-4-yl)-1,5-naphthyridine], the IC50 in assay [1] is greater than 10 µM; in assay [2], 1 to 10 µM; in assay [3], greater than 10 µM; in assay [4] it was greater than 10 µM. Besides, the AC50 in assay [4] was greater than 10 µM.
Regarding `Cn1cc2cc(-c3ccc4nc(N5CC[C@H](NC6CC6)C5)ccc4n3)c(O)cc2n1` [Compound 197, 5-{6-[(35)-3-(cyclopropylamino)pyrrolidin-1-yl]-1,5-naphthyridin-2-yl}-2-methylindazol-6-ol], the IC50 in assay [1] was 0.1 to 1 µM; in assay [2], less than 0.1 µM; in assay [3], less than 0.1 µM; in assay [4] it was less than 0.1 µM. Further, the AC50 in assay [4] was less than 0.1 µM.
Take `Cn1cc2cc(-c3ccc4nc(N5CC[C@@H](NC6CC6)C5)ccc4n3)c(O)cc2n1` [Compound 198]: the IC50 in assay [1] is 0.1 to 1 µM; in assay [2], less than 0.1 µM; in assay [3], less than 0.1 µM; in assay [4], less than 0.1 µM. Further, in assay [4], the AC50 was less than 0.1 µM.
Regarding `Cn1cc2nc(-c3ccc4nc(C5CCNCC5)ccc4n3)ccc2n1` [Compound 199, 2-{2-methylpyrazolo[4,3-b]pyridin-5-yl}-6-(piperidin-4-yl)-1,5-naphthyridine], the IC50 in assay [1], in assay [2], in assay [3] and in assay [4] was 0.1 to 1 µM throughout. Further, in assay [4], the AC50 is 0.1 to 1 µM.
Regarding `Cn1cc2cc(-c3ccc4nc(C5CCNCC5)ccc4n3)ncc2n1` [Compound 200], the IC50 in assay [1], in assay [2], in assay [3] and in assay [4] was 1 to 10 µM throughout. The AC50 in assay [4] is 1 to 10 µM.
`Cc1cn2cc(-c3ccc4nc(N5CCC(NC(C)(C)C)C5)ccc4n3)cc(C)c2n1` (centres unmarked) [Compound 201]: the IC50 is 0.1 to 1 µM in assay [1], less than 0.1 µM in assay [2], 0.1 to 1 µM in assay [3] and 0.1 to 1 µM in assay [4]. The half-maximal activity concentration (AC50) in assay [4] was in the range of 0.1 to 1 µM.
Regarding `Cn1cc2cc(-c3ccc4nc(N5CCC(NC(C)(C)C)C5)ccc4n3)c(O)c(F)c2n1` (centres unmarked) [Compound 202], the IC50 in assay [1] was less than 0.1 µM; in assay [2], greater than 10 µM; in assay [3], less than 0.1 µM; in assay [4], less than 0.1 µM. In addition, the AC50 in assay [4] is less than 0.1 µM.
As for `Cc1cn2nc(-c3ccc4nc(N5CCC(NC(C)(C)C)C5)ccc4n3)c(O)c2c(C)n1` (centres unmarked) [Compound 203, 2-{6-[3-(tert-butylamino)pyrrolidin-1-yl]-1,5-naphthyridin-2-yl}-4,6-dimethylpyrazolo[1,5-a]pyrazin-3-ol], the IC50 in assay [1], in assay [2], in assay [3] and in assay [4] was less than 0.1 µM each time. Besides, the AC50 in assay [4] is less than 0.1 µM.
Regarding `Cn1cc2cc(-c3ccc4nc(C5CCNCC5)ccc4n3)c(C#N)cc2n1` [Compound 204, 2-methyl-5-[6-(piperidin-4-yl)-1,5-naphthyridin-2-yl]indazole-6-carbonitrile], the IC50 in assay [1] was greater than 10 µM; in assay [2] it was 0.1 to 1 µM; in assay [3], 1 to 10 µM; in assay [4] it was 1 to 10 µM. Besides, the AC50 in assay [4] fell in the range of 1 to 10 µM.
For the molecule `Cn1cc2nc(-c3ccc4nc(C5CCNCC5)ccc4n3)c(F)cc2n1` [Compound 205, 2-{6-fluoro-2-methylpyrazolo[4,3-b]pyridin-5-yl}-6-(piperidin-4-yl)-1,5-naphthyridine], the IC50 in assay [1], in assay [2], in assay [3] and in assay [4] was 1 to 10 µM each time. Moreover, in assay [4], the AC50 was in the range of 1 to 10 µM.
Regarding `Cc1cn2cc(-c3ccc4nc(N5CCC(NC(C)(C)C)C5)ccc4n3)nc(C)c2n1` (centres unmarked) [Compound 206], the IC50 in assay [1], in assay [2], in assay [3] and in assay [4] was 1 to 10 µM in each case. Besides, in assay [4], the AC50 lay in the range of 1 to 10 µM.
As to `Cn1cc2nc(-c3ccc4nc(N5CCC(NC(C)(C)C)C5)ccc4n3)c(F)cc2n1` (centres unmarked) [Compound 207], the IC50 in assay [1], in assay [2], in assay [3] and in assay [4] was 1 to 10 µM throughout. Further, the AC50 in assay [4] is 1 to 10 µM.
For `Cc1nc(-c2ccc3nc(N4CCC(NC(C)(C)C)C4)ccc3n2)cc2cn(C)nc12` (centres unmarked) [Compound 208], the IC50 is greater than 10 µM in assay [1], 1 to 10 µM in assay [2], greater than 10 µM in assay [3] and greater than 10 µM in assay [4]. Besides, in assay [4], the AC50 was greater than 10 µM.
In the case of `Cc1nc2cc(O)c(-c3ccc4nc(N5CC[C@H](NC(C)(C)C)C5)ccc4n3)cc2o1` [Compound 209], the IC50 in assay [1], in assay [2], in assay [3] and in assay [4] was less than 0.1 µM each time. For the same molecule, the AC50 in assay [4] was less than 0.1 µM.
For the molecule `Cc1nc2cc(O)c(-c3ccc4nc(N5CC[C@@H](NC(C)(C)C)C5)ccc4n3)cc2o1` [Compound 210], the IC50 was 1 to 10 µM in assay [1], less than 0.1 µM in assay [2], less than 0.1 µM in assay [3] and less than 0.1 µM in assay [4]. Also, in assay [4], the AC50 was less than 0.1 µM.
In the case of `Cn1cc2cc(-c3cc4ccc(N5CCC(NC(C)(C)C)C5)nc4cn3)c(O)cc2n1` (centres unmarked) [Compound 218, 5-{2-[3-(tert-butylamino)pyrrolidin-1-yl]-1,7-naphthyridin-6-yl}-2-methylindazol-6-ol], the IC50 in assay [1] is greater than 10 µM; in assay [2], 0.1 to 1 µM; in assay [3], greater than 10 µM; in assay [4], greater than 10 µM. Besides, the half-maximal activity concentration (AC50) in assay [4] was greater than 10 µM.
For `Cc1nc2cc(O)c(-c3ccc4nc(N5CCC(N)C5)ccc4n3)cc2o1` (centres unmarked) [Compound 234, 6-[6-(3-aminopyrrolidin-1-yl)-1,5-naphthyridin-2-yl]-2-methyl-1,3-benzoxazol-5-ol], the concentration for half-maximal inhibition (IC50) is 0.1 to 1 µM in assay [1], less than 0.1 µM in assay [2], 0.1 to 1 µM in assay [3] and 0.1 to 1 µM in assay [4]. In assay [4], the AC50 is less than 0.1 µM.
